Test results: patent US20180343865A1, “HERBICIDAL COMPOSITIONS COMPRISING ISOXAZOLO[5,4-B]PYRIDINES” (BASF SE, priority 2015, published 2018)

What was measured:
Type in all cases: in vivo
Ambrosia elatior = test: Greenhouse postemergence herbicidal activity on AMBEL, 20 DAT; conditions: for % activity, solo MCPA: AMBEL, postemergence, 20 DAT
Experimental: (§1) For the post emergence treatment, the plants were first grown to the 2 leaf station (GS 12) and applied at GS 12-19 depending on the species. The herbicidal compositions were suspended or emulsified in water as distribution medium and sprayed using finely distributing nozzles.
(§2) The plants have been cultivated due to their individual requirements at 10 to 25° C. and. 20 to 35° C. The plants were irrigated due to their necessity.
(§3) The respective stated components A), were formulated as a 5% by weight strength emulsion concentrate containing wettol EM 31 20% and Cyclohexanone 80%. The respective stated components B), were formulated as either emulsifiable concentrates (EC), soluble liquids (SL), suspension concentrates (SC) or soluble granules (SG) as indicated in the table below. Component A, component B and the solvent system are introduced into the spray liquor used for applying the active compound. In the examples, the solvent used was water containing 1% Dash (Agnique ME 181 37.5%, Lutensit A-EP 22.5%, and Oleic Acid 5%) and 2% ammonium suflate.
(§4) In the following experiments, the herbicidal activity for the individual herbicide compounds (solo and mixture applications), the herbicidal succession was assessed 20 days after treatment (DAT). The evaluation for the damage on undesired weeds caused by the chemical compositions was carried out using a scale from 0 to 100%, compared to the untreated control plants. Here, 0 means no damage and 100 means complete destruction of the plants. The plants used in the greenhouse experiments belonged to the following species:
(§5) The value E, which corresponds to the effect (in %) that is to be expected if the activity of the individual compounds is additive, was calculated using the method of S. R. Colby (1967) “Calculating synergistic and antagonistic responses of herbicide combinations”, Weeds 15, p. 22 ff. Colby calculation for 2 way mixtures:
(§6) where: • X=effect in percent using herbicide A at an application rate a; • Y=effect in percent using herbicide B at an application rate b; • E=expected effect (in %) of A+B at application rates a+b
(§7) If the value observed in this manner is higher than the value E calculated according to Colby, a synergistic effect is present.

Polygonum convolvulus = test: Greenhouse postemergence herbicidal activity on POLCO, 20 DAT; conditions: for % activity, solo MCPA: 20 DAT
Experimental: as §1, §2, §3, §4, §5, §6, §7

Amaranthus retroflexus = test: Greenhouse postemergence herbicidal activity on AMARE, 20 DAT; conditions: for % activity, solo MCPA: 20 DAT
Experimental: as §1, §2, §3, §4, §5, §6, §7

Conyza canadiensis = test: Greenhouse postemergence herbicidal activity on ERICA, 20 DAT
Experimental: as §1, §2, §3, §4, §5, §6, §7

Polygonum persicaria = test: Greenhouse postemergence herbicidal activity on POLPE, 20 DAT; conditions: for % activity, solo MCPA: postemergence, 20 DAT
Experimental: as §1, §2, §3, §4, §5, §6, §7

Stellaria media = test: Greenhouse postemergence herbicidal activity on STEME, 20 DAT; conditions: for % activity, solo MCPA: 20 DAT
Experimental: as §1, §2, §3, §4, §5, §6, §7

Sorghum bicolor = test: Greenhouse postemergence herbicidal activity on SORVU, 20 DAT
Experimental: as §1, §2, §3, §4, §5, §6, §7

Abutilon theoprasti = test: Greenhouse postemergence herbicidal activity on ABUTH, 20 DAT; conditions: for % activity, solo MCPA: 20 DAT
Experimental: as §1, §2, §3, §4, §5, §6, §7

Chenopodium album = test: Greenhouse postemergence herbicidal activity on CHEAL, 20 DAT
Experimental: as §1, §2, §3, §4, §5, §6, §7

Ipomoea hederacea = test: Greenhouse postemergence herbicidal activity on IPOHE, 20 DAT; conditions: for % activity, solo MCPA: 20 DAT
Experimental: as §1, §2, §3, §4, §5, §6, §7

Matricaria chamomilla = test: Greenhouse postemergence herbicidal activity on MATCH, 20 DAT; conditions: for % activity, solo MCPA: 20 DAT
Experimental: as §1, §2, §3, §4, §5, §6, §7

Polygonum aviculare = test: Greenhouse postemergence herbicidal activity on POLAV, 20 DAT
Experimental: as §1, §2, §3, §4, §5, §6, §7

Setaria viridis = test: Greenhouse postemergence herbicidal activity on SETVI, 20 DAT; conditions: post-emergence, 62.5 gai/ha, read-out: % activity, solo application dicuran
Experimental: as §1, §2
The respective stated components A), were formulated as a 5% by weight strength emulsion concentrate containing wettol EM 31 20% and Cyclohexanone 80%. The respective stated components B), were formulated as either emulsifiable concentrates (EC), soluble liquids (SL), suspension concentrates (SC) or soluble granules (SG) as indicated in the table below. […]
In the following experiments, the herbicidal activity for the individual herbicide compounds (solo and mixture applications), the herbicidal succession was assessed 20 days after treatment (DAT). […]
The value E, which corresponds to the effect (in %) that is to be expected if the activity of the individual compounds is additive, was calculated using the method of S. R. Colby (1967) “Calculating synergistic and antagonistic responses of herbicide combinations”, Weeds 15, p. […]
as §7

Galium aparine = test: Greenhouse postemergence herbicidal activity on GALAP, 20 DAT; conditions: Galium aparine, post-emergence, 62.5 gai/ha, read-out: % activity, solo application dicuran
Experimental: as §1, §2, §3, §4, §5, §6, §7

ALOMY = test: Greenhouse postemergence herbicidal activity on ALOMY, 20 DAT; conditions: Alopecurus myosuroides, post-emergence, 62.5 gai/ha, read-out: % activity, solo application dicuran
APESV = test: Greenhouse postemergence herbicidal activity on APESV, 20 DAT; conditions: post-emergence, 62.5 gai/ha, read-out: % activity, solo application dicuran
AVEFA = test: Greenhouse postemergence herbicidal activity on AVEFA, 20 DAT; conditions: Avena fatua, post-emergence, 62.5 gai/ha, read-out: % activity, solo application dicuran
BROST = test: Greenhouse postemergence herbicidal activity on BROST, 20 DAT; conditions: post-emergence, 62.5 gai/ha, read-out: % activity, solo application dicuran
CONAR = test: Greenhouse postemergence herbicidal activity on CONAR, 20 DAT; conditions: post-emergence, 62.5 gai/ha, read-out: % activity, solo application dicuran
DIGSA = test: Greenhouse postemergence herbicidal activity on DIGSA, 20 DAT; conditions: Digitaria sanguinalis, post-emergence, 62.5 gai/ha, read-out: % activity, solo application dicuran
[1] = Ambrosia artemisiifolia, post-emergence, 480 h, read-out: % activity, solo metsulfuron
[2] = Fallopia convolvulus, post-emergence, 480 h, read-out: % activity, solo metsulfuron
[3] = Persicaria maculosa, post-emergence, 480 h, read-out: % activity, solo metsulfuron
[4] = Sorghum bicolor, post-emergence, 480 h, read-out: % activity, solo metsulfuron

COc1nc(C)nc(=NC(=O)NS(=O)(=O)c2ccccc2C(=O)O)[nH]1 [metsulfuron, Metsulfuron]
inhibition at 0.25 g/ha (Ambrosia elatior; [1]): 0% | inhibition at 0.5 g/ha (Ambrosia elatior; [1]): 5% | inhibition at 1 g/ha (Ambrosia elatior; [1]): 98% | inhibition at 0.5 g/ha (Polygonum convolvulus; [2]): 70% | inhibition at 1 g/ha (Polygonum convolvulus; [2]): 95% | inhibition at 1 g/ha (Amaranthus retroflexus; Amaranthus retroflexus, post-emergence, 480 h, read-out: % activity, solo metsulfuron): 95% | inhibition at 0.5 g/ha (Conyza canadiensis; Conyza, post-emergence, 480 h, read-out: % activity, solo metsulfuron): 90% | inhibition at 0.5 g/ha (Polygonum persicaria; [3]): 95% | inhibition at 1 g/ha (Polygonum persicaria; [3]): 95% | inhibition at 0.25 g/ha (Stellaria media; Stellaria media, post-emergence, 480 h, read-out: % activity, solo metsulfuron): 98% | inhibition at 0.5 g/ha (Sorghum bicolor; [4]): 20% | inhibition at 1 g/ha (Sorghum bicolor; [4]): 35%

Cc1cc(Cl)ccc1OCC(=O)O [MCPA]
% activity, solo MCPA (Abutilon theoprasti; 50 gai/ha): 60% | % activity, solo MCPA (Abutilon theoprasti; 200 gai/ha): 75% | % activity, solo MCPA (Ambrosia elatior; 50 gai/ha): 65% | % activity, solo MCPA (Ambrosia elatior; 100 gai/ha): 65% | % activity, solo MCPA (Polygonum convolvulus; POLCO, 50 gai/ha, postemergence): 0% | % activity, solo MCPA (Polygonum convolvulus; POLCO, 100 gai/ha, postemergence): 0% | % activity, solo MCPA (Polygonum convolvulus; POLCO, 200 gai/ha, postemergence): 0% | % activity, solo MCPA (Amaranthus retroflexus; AMARE, 50 gai/ha, postemergence): 55% | % activity, solo MCPA (Amaranthus retroflexus; AMARE, 100 gai/ha, postemergence): 65% | % activity, solo MCPA (Amaranthus retroflexus; AMARE, 200 gai/ha, postemergence): 90% | % activity, solo MCPA (Chenopodium album; 200 gai/ha, 20 DAT): 90% | % activity, solo MCPA (Conyza canadiensis; ERICA, 50 gai/ha, postemergence, 20 DAT): 60% | % activity, solo MCPA (Ipomoea hederacea; 50 gai/ha): 98% | % activity, solo MCPA (Ipomoea hederacea; 100 gai/ha): 98% | % activity, solo MCPA (Ipomoea hederacea; 200 gai/ha): 98% | % activity, solo MCPA (Matricaria chamomilla; 50 gai/ha): 20% | % activity, solo MCPA (Matricaria chamomilla; 100 gai/ha): 30% | % activity, solo MCPA (Polygonum aviculare; 50 gai/ha): 10% | % activity, solo MCPA (Polygonum aviculare; 100 gai/ha): 70% | % activity, solo MCPA (Polygonum aviculare; 200 gai/ha): 98% | % activity, solo MCPA (Polygonum persicaria; POLPE, 50 gai/ha): 20% | % activity, solo MCPA (Polygonum persicaria; POLPE, 200 gai/ha): 60% | % activity, solo MCPA (Polygonum persicaria; POPLE, 100 gai/ha): 35% | % activity, solo MCPA (Stellaria media; STEME, 50 gai/ha, postemergence): 0% | % activity, solo MCPA (Stellaria media; STEME, 100 gai/ha, postemergence): 0% | % activity, solo MCPA (Stellaria media; STEME, 200 gai/ha, postemergence): 20% | % activity, solo MCPA (Sorghum bicolor; SORVU, 200 gai/ha, postemergence, 20 DAT): 30%

Cc1ccc(NC(=O)N(C)C)cc1Cl [dicuran, Chlorotoluron]
inhibition at 62.5 g/ha (Abutilon theoprasti; Abutilon, post-emergence, 62.5 gai/ha, read-out: % activity, solo application dicuran): 50% | inhibition at 62.5 g/ha (Setaria viridis): 0% | inhibition at 62.5 g/ha (Polygonum convolvulus; Fallopia convolvulus, post-emergence, POLCO, 62.5 gai/ha, postemergence, read-out: % activity, solo application dicuran): 80% | inhibition at 62.5 g/ha (Amaranthus retroflexus; Amaranthus retroflexus, post-emergence, AMARE, 62.5 gai/ha, postemergence, read-out: % activity, solo application dicuran): 60% | inhibition at 62.5 g/ha (Chenopodium album; Chenopodium album, post-emergence, 62.5 gai/ha, read-out: % activity, solo application dicuran): 90% | inhibition at 62.5 g/ha (Conyza canadiensis; Conyza, post-emergence, ERICA, 62.5 gai/ha, postemergence, read-out: % activity, solo application dicuran): 75% | inhibition at 62.5 g/ha (Ipomoea hederacea; Ipomoea hederacea, post-emergence, 62.5 gai/ha, read-out: % activity, solo application dicuran): 85% | inhibition at 62.5 g/ha (Matricaria chamomilla; Matricaria chamomilla, post-emergence, 62.5 gai/ha, read-out: % activity, solo application dicuran): 85% | inhibition at 62.5 g/ha (Stellaria media; Stellaria media, post-emergence, STEME, 62.5 gai/ha, postemergence, read-out: % activity, solo application dicuran): 85% | inhibition at 62.5 g/ha (Galium aparine): 35% | inhibition at 62.5 g/ha (ALOMY): 0% | inhibition at 62.5 g/ha (APESV): 0% | inhibition at 62.5 g/ha (AVEFA): 0% | inhibition at 62.5 g/ha (BROST): 0% | inhibition at 62.5 g/ha (CONAR): 0% | inhibition at 62.5 g/ha (DIGSA): 0%
